Patent US12616751B2, “Photosensitizing antibody-fluorophore conjugates” (The USA, as represented by the Secretary, Department of …, priority 2010, dated 2026)
Values joined by “and” are separate entries in the source; they are usually repeats but may differ in a detail not shown here. Identical values can stand only once.

Test system: A431 tumors
Test: In vivo FLT imaging after PIT
Set-up: species or system mice
Procedure: Reagents. […] All other chemicals used were of reagent grade. […] Then the mixture was purified with a Sephadex G50 column (PD-10; GE Healthcare). The protein concentrations were determined with Coomassie Plus protein assay kit (Pierce Biotechnology) by measuring light absorption at 595 nm (8453 Value System; Agilent Technologies). […] The number of IR700 per antibody was approximately 4 for the 1:4.5 reaction conditions. The addition of 0.4% SDS to the sample dissociated the fluorophores from each other, effectively causing dequenching. Quenching efficiency (QE) for a particular conjugation is defined as the fluorescence intensity with SDS divided by fluorescence intensity without SDS. […] Pan-1R700 was kept at 4° C. in the refrigerator as a stock solution. Fluorescence lifetime measurements. FLT experiments were performed with the eXplore OptixTm-MX2 system (ART Advanced Research Technologies, Inc.) (Hutchinson et al., Biophys J 68:1574-82, 1995; Ma et al., Appl Opt 46:1650-7, 2007). A fixed pulsed laser diode was used as an excitation source at a wavelength of 670 nm. Region of interest (ROI) measurements with a spot size of 1.5 mm were selected at the image plane. […] Lifetime analysis was performed by using the ART OptiView (ART Advanced Research Technologies, Inc.). Lifetime values and lifetime mapping were calculated to fit fluorescence temporal point-spread functions (TPSFs) as single-exponential models with the Fit TPSF tool. Photoimmunotherapy for in vitro and in vivo models. PIT was performed with a red light-emitting diode (LED) light at 680 to 700 nm wavelength (Tech-LED, Marubeni America Co.) (Mitsunaga et al., Bioconjug Chem. 23:604-9, 2012). Power densities were measured with an optical power meter (PM 100, Thorlabs). Determination of FLT for Pan-IR700. Samples of Pan-IR700 at concentrations of 2.5, 5, 20, 40 pg/mL were prepared by dilution with PBS. The fluorescence intensities and lifetimes of each sample were determined using the Optix MX2 system at room temperature within a 1.7 ml centrifuge tube. To investigate the effect of PIT using Pan-1R700, the FLT of each sample at the concentration of 50 pg/mL was measured after irradiating the samples at a PIT dose of 0, 2, 4, 8, 15, 30 J/cm2. Cell line. […] The cell line was grown in RPMI 1640 (Life Technologies) containing 10% fetal bovine serum (Life Technologies), 0.03% L-glutamine, 100 units/mL penicillin, and 100 μg/mL streptomycin in 5% CO2 at 37° C. Cell pellet FLT studies A431. Cells were plated on […] cell culture flasks and incubated until confluent. Then Pan-IR700 conjugate was added to the media (1 pg/mL), and cells were incubated for 24 h at 37° C. Upon completion of incubation, cells were removed from the flasks, and centrifuged to obtain pellets. The resulting cell pellets were washed with PBS×3 and placed in 1.7 mL centrifuge tubes. The fluorescence intensities and lifetimes of each sample were then obtained. […] After that, these pellets were gently washed with PBS×1 and fluorescence intensity and lifetime images were obtained. To detect the antigen specific localization of IR700 and to confirm the morphological changes of A431 cells before and after PIT, fluorescence microscopy was performed using Olympus BX61 microscope (Olympus America) equipped with the following filters: a 590-650 nm excitation filter, a 665-740 nm band pass emission filter. […]

Pan-IR700: Panitumumab (anti-human EGFR IgG2 MAb) conjugated to IR700; about 3 to 4 IR700 per antibody
FLT shortening compared with untreated control (10 J/cm^2, 48 hours after PIT): 7.7% | FLT immediately after PIT, compared with no treatment controls (30 J/cm^2): 61.5+/−5.1% and 61.5 ± 15.1% | FLT immediately after PIT, of untreated tumors in the same mouse (30 J/cm^2): 61.5%+/−5.05 | FLT immediately after PIT, compared with no treatment controls (50 J/cm^2): 69.1+/−10.9% | FLT immediately after PIT, of untreated tumors in the same mouse (50 J/cm^2): 69.0%+110.92
